From PubChem BioAssay AID248 (DTP/NCI, 2004)
Several values for one entry are separate records, joined by “and”; a condition that tells them apart may be missing. Equal values may be shown once. Inconclusive results and toxic doses are left out. Rule as the data show it: active = T/C of 150% or more; inactive = T/C below 125%.

Tested on: L1210 leukemia ip in BDF1 mice, survival T/C
Assay: NCI In Vivo Anticancer Drug Screen. Data for tumor model L1210 Leukemia (intraperitoneal) in B6D2F1 (BDF1) mice
Details: endpoint: mean survival time, higher = longer survival
Procedure, shortened: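 Value reflects the ratio of survival in compound-treated mice to survival in vehicle-treated controls, with both groups carrying the same transplanted tumor.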

[1] = dose: 100.0 mg/kg/injection, schedule: Q01DX001 (ip), vehicle: Klucel (hydroxypropylcellulose) (HPC)
[2] = dose: 100.0 mg/kg/injection, schedule: Q01DX009 (ip), vehicle: Klucel (hydroxypropylcellulose) (HPC)
[3] = dose: 200.0 mg/kg/injection, schedule: Q01DX001 (ip), vehicle: Klucel (hydroxypropylcellulose) (HPC)
[4] = dose: 200.0 mg/kg/injection, schedule: Q01DX009 (ip), vehicle: Klucel (hydroxypropylcellulose) (HPC)
[5] = dose: 400.0 mg/kg/injection, schedule: Q01DX001 (ip), vehicle: Klucel (hydroxypropylcellulose) (HPC)
[6] = dose: 400.0 mg/kg/injection, schedule: Q01DX009 (ip), vehicle: Klucel (hydroxypropylcellulose) (HPC)
[7] = dose: 100.0 mg/kg/injection, schedule: Q04DX002 (ip), vehicle: Klucel (hydroxypropylcellulose) (HPC)
[8] = dose: 200.0 mg/kg/injection, schedule: Q04DX002 (ip), vehicle: Klucel (hydroxypropylcellulose) (HPC)
[9] = dose: 400.0 mg/kg/injection, schedule: Q04DX002 (ip), vehicle: Klucel (hydroxypropylcellulose) (HPC)
[10] = dose: 100.0 mg/kg/injection, schedule: Q01DX009 (ip), vehicle: saline with Tween-80
[11] = dose: 200.0 mg/kg/injection, schedule: Q01DX009 (ip), vehicle: saline with Tween-80
[12] = dose: 100.0 mg/kg/injection, schedule: Q04DX003 (ip), vehicle: saline
[13] = dose: 200.0 mg/kg/injection, schedule: Q04DX003 (ip), vehicle: saline
[14] = dose: 400.0 mg/kg/injection, schedule: Q04DX003 (ip), vehicle: saline
[15] = dose: 100.0 mg/kg/injection, schedule: Q04DX003 (ip), vehicle: saline with Tween-80
[16] = dose: 200.0 mg/kg/injection, schedule: Q04DX003 (ip), vehicle: saline with Tween-80
[17] = dose: 100.0 mg/kg/injection, schedule: Q04DX003 (ip), vehicle: Klucel (hydroxypropylcellulose) (HPC)
[18] = dose: 200.0 mg/kg/injection, schedule: Q04DX003 (ip), vehicle: Klucel (hydroxypropylcellulose) (HPC)
[19] = dose: 400.0 mg/kg/injection, schedule: Q04DX003 (ip), vehicle: Klucel (hydroxypropylcellulose) (HPC)
[20] = dose: 25.0 mg/kg/injection, schedule: Q01DX009 (ip), vehicle: saline with Tween-80
[21] = dose: 50.0 mg/kg/injection, schedule: Q01DX009 (ip), vehicle: saline with Tween-80

Measured: T/C

CC(C)(C)NO
inactive: [1] 113 % of control | [2] 108 % of control | [3] 101 % of control | [4] 103 % of control | [5] 98 % of control | [6] 101 % of control

O=C(NCc1ccncc1)Nc1ccccc1
inactive: [7] 103 % of control | [8] 103 % of control | [9] 106 % of control

CC(C)CC(Br)C(=O)NCC(=O)O (stereo not given)
inactive: [10] 88 % of control | [11] 91 % of control | dose: 400.0 mg/kg/injection, schedule: Q01DX009 (ip), vehicle: saline with Tween-80 89 % of control

Cc1c(NC(=O)Nc2ccccc2F)c(=O)n(-c2ccccc2)n1C
inactive: dose: 100.0 mg/kg/injection, schedule: Q01DX001 (ip), vehicle: saline 101 % of control | dose: 100.0 mg/kg/injection, schedule: Q01DX009 (ip), vehicle: acetone 86 % of control | [12] 112 % of control | dose: 200.0 mg/kg/injection, schedule: Q01DX001 (ip), vehicle: saline 95 % of control and 91 % of control | [13] 91 % of control | dose: 400.0 mg/kg/injection, schedule: Q01DX001 (ip), vehicle: saline 97 % of control and 98 % of control | [14] 95 % of control

CSc1cc(C)c(OC(=O)Nc2c(C)cccc2C)c(CO)c1
inactive: [15] 86 % of control | [16] 90 % of control

OCC1OC(Oc2ccccc2)C(O)C(O)C1O (stereo not given)
inactive: [12] 96 % of control | [13] 105 % of control | [14] 100 % of control

CC(Br)(C(=O)O)C(Br)c1ccccc1 (stereo not given)
inactive: [15] 90 % of control | [16] 95 % of control | dose: 400.0 mg/kg/injection, schedule: Q04DX003 (ip), vehicle: saline with Tween-80 88 % of control

Cc1ccc(S(=O)(=O)Nc2ccccc2OS(=O)(=O)c2ccc(C)cc2)cc1
inactive: [1] 95 % of control | [2] 106 % of control | [17] 101 % of control | [3] 89 % of control | [4] 108 % of control | [18] 100 % of control | [5] 93 % of control | [6] 106 % of control | [19] 97 % of control

Clc1ccc2c(c1)C(N1CCOCC1)c1cc(Cl)cc(Cl)c1-2 (stereo not given)
inactive: [1] 102 % of control | [17] 98 % of control | [3] 92 % of control | [18] 96 % of control | [5] 96 % of control | [19] 94 % of control

CC(=O)Oc1cccc(OC(=O)Nc2ccccc2F)c1
inactive: [20] 103 % of control | [21] 108 % of control | [10] 103 % of control and 113 % of control | [11] 95 % of control and 103 % of control

C/C(=C\c1ccccc1)[N+](=O)[O-]
inactive: dose: 1.0 mg/kg/injection, schedule: Q04DX003 (ip), vehicle: Klucel (hydroxypropylcellulose) (HPC) 106 % of control | dose: 4.0 mg/kg/injection, schedule: Q01DX009 (ip), vehicle: Klucel (hydroxypropylcellulose) (HPC) 104 % of control | dose: 8.0 mg/kg/injection, schedule: Q01DX009 (ip), vehicle: Klucel (hydroxypropylcellulose) (HPC) 89 % of control | dose: 12.5 mg/kg/injection, schedule: Q01DX009 (ip), vehicle: Klucel (hydroxypropylcellulose) (HPC) 98 % of control | dose: 12.5 mg/kg/injection, schedule: Q04DX003 (ip), vehicle: Klucel (hydroxypropylcellulose) (HPC) 101 % of control | dose: 16.0 mg/kg/injection, schedule: Q01DX009 (ip), vehicle: Klucel (hydroxypropylcellulose) (HPC) 107 % of control | dose: 20.0 mg/kg/injection, schedule: Q04DX003 (ip), vehicle: Klucel (hydroxypropylcellulose) (HPC) 101 % of control | dose: 25.0 mg/kg/injection, schedule: Q01DX009 (ip), vehicle: Klucel (hydroxypropylcellulose) (HPC) 102 % of control and 104 % of control | dose: 25.0 mg/kg/injection, schedule: Q04DX003 (ip), vehicle: Klucel (hydroxypropylcellulose) (HPC) 116 % of control | dose: 32.0 mg/kg/injection, schedule: Q01DX009 (ip), vehicle: Klucel (hydroxypropylcellulose) (HPC) 100 % of control | dose: 40.0 mg/kg/injection, schedule: Q04DX003 (ip), vehicle: Klucel (hydroxypropylcellulose) (HPC) 95 % of control | dose: 50.0 mg/kg/injection, schedule: Q01DX009 (ip), vehicle: Klucel (hydroxypropylcellulose) (HPC) 101 % of control and 113 % of control | dose: 50.0 mg/kg/injection, schedule: Q04DX003 (ip), vehicle: Klucel (hydroxypropylcellulose) (HPC) 106 % of control | dose: 64.0 mg/kg/injection, schedule: Q01DX009 (ip), vehicle: Klucel (hydroxypropylcellulose) (HPC) 110 % of control | dose: 80.0 mg/kg/injection, schedule: Q04DX003 (ip), vehicle: Klucel (hydroxypropylcellulose) (HPC) 100 % of control

C1CNC(NC23CC4CC(CC(C4)C2)C3)=N1
inactive: [2] 98 % of control

CN(C)c1ccc(O)c2c1CC1CC3C(N(C)C)C(=O)C(C(N)=O)=C(O)C3(O)C(=O)C1=C2O (stereo not given)
inactive: [15] 100 % of control | [16] 108 % of control

Cc1cccc(C(=O)O)c1CC1NCCC2c3ccccc3NC12 (stereo not given)
inactive: dose: 75.0 mg/kg/injection, schedule: Q01DX001 (ip), vehicle: saline 98 % of control | dose: 150.0 mg/kg/injection, schedule: Q01DX001 (ip), vehicle: saline 100 % of control

Cc1cc[n+](C2CC(C)(C)c3ccccc3C2=O)cc1 (stereo not given)
inactive: dose: 12.5 mg/kg/injection, schedule: Q01DX001 (ip), vehicle: Klucel (hydroxypropylcellulose) (HPC) 100 % of control | dose: 25.0 mg/kg/injection, schedule: Q01DX001 (ip), vehicle: Klucel (hydroxypropylcellulose) (HPC) 113 % of control | dose: 50.0 mg/kg/injection, schedule: Q01DX001 (ip), vehicle: Klucel (hydroxypropylcellulose) (HPC) 98 % of control

CC(=O)c1ccc(CC(C)C)cc1
inactive: dose: 150.0 mg/kg/injection, schedule: Q01DX009 (ip), vehicle: Klucel (hydroxypropylcellulose) (HPC) 90 % of control | dose: 300.0 mg/kg/injection, schedule: Q01DX009 (ip), vehicle: Klucel (hydroxypropylcellulose) (HPC) 94 % of control

O=C(O)CCC(=O)c1ccc2c3c1CCCC3CC2 (stereo not given)
inactive: [7] 107 % of control | [8] 101 % of control | [9] 93 % of control

Nc1nc(N)c(-c2ccc(Cl)cc2)c(C(=O)O)n1
inactive: [20] 90 % of control | [21] 97 % of control | [10] 93 % of control and 103 % of control

FC(F)(F)c1cccc(NC(=S)NCc2ccco2)c1
inactive: [2] 90 % of control | [4] 93 % of control | [6] 96 % of control
